We go through 25 compounds from PMC8611036, “An integrated method for optimized identification of effective natural inhibitors against SARS-CoV-2 3CLpro” (Scientific Reports, 2021).

Each structure is given as a SMILES string. Non-standard residues stand in square brackets, D forms with d. Residues, ends and D or L forms follow the SMILES beside them. ξ: configuration not given here. *: point of attachment. ξF = NC(Cc1ccccc1)C(=O)O; Cbz = O=C(OCc1ccccc1)*; CF3 = FC(F)(F)*

For data set [1] the following is noted: ref TCMSP database, cited from earlier work; for HBA: number of hydrogen-bond acceptors; for HBD: number of hydrogen-bond donors; for OB (%): oral bioavailability.
Another data set addresses SARS-CoV-2 3CLpro (Severe acute respiratory syndrome coronavirus 2, UniProt P0DTD1). Particulars: SARS-CoV pIC50 multiplied by similarity index (SI), training set compounds.
Data set [2] deals with SARS-CoV 3CLpro. Particulars: SARS-CoV 3CLpro inhibitors (training set), ref: per compound, cited from earlier work; for pIC50: from literature IC50; for IC50: literature values.
Data set [3] deals with SARS-CoV 3CLpro. It is filed as biochemical. The conditions noted are these: activity class by pIC50 threshold 6.

The term pIC50 denotes the negative decadic logarithm of the IC50, by convention in mol/L. As usually defined, the IC50 is the concentration that inhibits the measured activity by half.

Turning to `O=c1cc(-c2ccc(O)cc2)oc2cc(O)cc(O)c12` [MOL000008, apigenin], in data set [1], the HBA was 5, the HBD is recorded as 3, the “OB (%)” value is reported as 23.06% and the BBB was -0.61. In data set [1], the Caco-2 was 0.43, the FASA- is 0.41 and the NRotB is 1.
Take `O=c1cc(-c2ccc(O)c(O)c2)oc2cc(O)cc(O)c12` [MOL000006, luteolin]: in data set [1], the HBA is 6, the HBD is 4, the “OB (%)” value is recorded as 36.16% and the BBB is given as -0.84. In addition, in data set [1], the Caco-2 is given as 0.19, the FASA- was 0.39, the HL was 15.94 and the NRotB was 1.
Regarding `O=C(Oc1cncc(Cl)c1)c1cccc2ccccc12` [CMP168], the “SI*pIC50” value at SARS-CoV-2 3CLpro worked out at 7.073. For the same compound, in the data set with SARS-CoV 3CLpro [2], the pIC50 was 6.921 and the half-maximal inhibitory concentration (IC50) is 0.12 µM. In addition, the “Inact.(<6)/Act.(>=6)” value in the data set on SARS-CoV 3CLpro [3] is given as “Act. (Act.(>=6))”.
On to `O=C(CSc1ncnc2c1sc1nc(N3CCOCC3)c3c(c12)CCCC3)NCc1ccco1` [CMP134], for which, at SARS-CoV-2 3CLpro, the “SI*pIC50” value is on record as 4.194. For the same compound, in the data set with SARS-CoV 3CLpro [2], the pIC50 was 4.0423 and the 50% inhibitory concentration (IC50) is 90.7 µM. In addition, the “Inact.(<6)/Act.(>=6)” value with SARS-CoV 3CLpro [3] is “Inact. (Inact.(<6))”.
Regarding `OC[C@@H](O)[C@@H](O)[C@H](O)[C@H](O)CO` [MOL000003, MTL], in data set [1], the HBA is 6, the HBD is 6, the “OB (%)” value is 17.73% and the BBB is -4.07. Further, in data set [1], the Caco-2 was -1.58, the FASA- is 0.18 and the NRotB was 5.
For the compound `O=C(Oc1cncc(Cl)c1)c1cc2ccccc2[nH]1` [CMP170], on SARS-CoV-2 3CLpro, the “SI*pIC50” value was 7.307. In the data set on SARS-CoV 3CLpro [2], the pIC50 is 7.1549 and the IC50 is 0.07 µM. For the same compound, in the data set on SARS-CoV 3CLpro [3], the “Inact.(<6)/Act.(>=6)” value is recorded as “Act. (Act.(>=6))”.
Take `O=C(O)c1ccc(S(=O)(=O)c2cc(Br)c(O)c(Br)c2)cc1` [CMP138]: the “SI*pIC50” value at SARS-CoV-2 3CLpro worked out at 4.948. Besides, in the data set with SARS-CoV 3CLpro [2], the pIC50 is listed as 4.796 and the IC50 is 16 µM. The “Inact.(<6)/Act.(>=6)” value in the data set on SARS-CoV 3CLpro [3] is listed as “Inact. (Inact.(<6))”.
For the compound `CC(C)c1cc2c(cc1O)[C@@]1(C)CCCC(C)(C)[C@@H]1CC2` [CMP132], on SARS-CoV-2 3CLpro, the “SI*pIC50” value came to 4.457. Further, in the data set with SARS-CoV 3CLpro [2], the pIC50 is reported as 4.305 and the IC50 was 49.6 µM. The “Inact.(<6)/Act.(>=6)” value with SARS-CoV 3CLpro [3] was “Inact. (Inact.(<6))”.
For the compound `CCCn1c(NCc2ccc(N3N=C(c4ccccc4)CC3c3ccccc3)cc2)nc2ccccc21` (centres unmarked) [CMP115], the “SI*pIC50” value on SARS-CoV-2 3CLpro was 5.249. In the data set on SARS-CoV 3CLpro [2], the pIC50 is recorded as 5.097 and the concentration for half-maximal inhibition (IC50) is 8 µM. In addition, the “Inact.(<6)/Act.(>=6)” value in the data set with SARS-CoV 3CLpro [3] is “Inact. (Inact.(<6))”.
Consider `O=C1C(=O)N(Cc2ccccc2)c2ccc(S(=O)(=O)N3CCCCC3)cc21` [CMP176], for which the “SI*pIC50” value on SARS-CoV-2 3CLpro amounted to 5.006. Also, in the data set with SARS-CoV 3CLpro [2], the negative-log IC50 (pIC50) is given as 4.854 and the IC50 is 14 µM. Besides, the “Inact.(<6)/Act.(>=6)” value in the data set with SARS-CoV 3CLpro [3] is given as “Inact. (Inact.(<6))”.
Regarding `O=C(Oc1cncc(Cl)c1)c1cc2ccccc2s1` [CMP140], on SARS-CoV-2 3CLpro, the “SI*pIC50” value was 7.152. For the same compound, in the data set with SARS-CoV 3CLpro [2], the pIC50 was 7 and the IC50 is 0.1 µM. Moreover, in the data set on SARS-CoV 3CLpro [3], the “Inact.(<6)/Act.(>=6)” value was “Act. (Act.(>=6))”.
Turning to `O=C1Nc2ccc(S(=O)(=O)N3CCOCC3)cc2C1=O` [CMP159], the “SI*pIC50” value on SARS-CoV-2 3CLpro is on record as 5.05. For the same compound, in the data set with SARS-CoV 3CLpro [2], the pIC50 is 4.898 and the IC50 was 12.7 µM. In addition, in the data set with SARS-CoV 3CLpro [3], the “Inact.(<6)/Act.(>=6)” value is reported as “Inact. (Inact.(<6))”.
As to `C=C[C@@]1(C)CC[C@H]2C(=CC[C@@H]3[C@]2(C)CCC[C@@]3(C)C(=O)O)C1` [CMP133], the “SI*pIC50” value on SARS-CoV-2 3CLpro is recorded as 3.699. In the data set on SARS-CoV 3CLpro [2], the negative logarithm of the IC50 (pIC50) is 3.547 and the IC50 was 284 µM. In addition, the “Inact.(<6)/Act.(>=6)” value in the data set with SARS-CoV 3CLpro [3] was “Inact. (Inact.(<6))”.
Consider `O=[N+]([O-])c1ccc(S(=O)(=O)c2ccc(Cl)cc2)[n+]([O-])c1` [CMP121], for which the “SI*pIC50” value at SARS-CoV-2 3CLpro stood at 4.976. For the same compound, in the data set with SARS-CoV 3CLpro [2], the negative logarithm of the IC50 (pIC50) was 4.824 and the IC50 was 15 µM. For the same compound, the “Inact.(<6)/Act.(>=6)” value in the data set with SARS-CoV 3CLpro [3] is given as “Inact. (Inact.(<6))”.
Consider `CC(=O)c1ccccc1S(=O)(=O)c1ccccc1C(=O)O` [CMP147], for which, at SARS-CoV-2 3CLpro, the “SI*pIC50” value amounted to 4.948. In the data set with SARS-CoV 3CLpro [2], the negative logarithm of the IC50 (pIC50) is listed as 4.796 and the half-maximal inhibitory concentration (IC50) is 16 µM. The “Inact.(<6)/Act.(>=6)” value in the data set with SARS-CoV 3CLpro [3] is on record as “Inact. (Inact.(<6))”.
As to `Nc1ncc(S(=O)(=O)c2ccc(Cl)cc2)c(N)n1` [CMP141], the “SI*pIC50” value on SARS-CoV-2 3CLpro was 5.374. Further, in the data set with SARS-CoV 3CLpro [2], the pIC50 is reported as 5.222 and the IC50 was 6 µM. In addition, the “Inact.(<6)/Act.(>=6)” value in the data set on SARS-CoV 3CLpro [3] was “Inact. (Inact.(<6))”.
For the compound `O=C(Oc1cncc(Cl)c1)c1cscn1` [CMP166], the “SI*pIC50” value on SARS-CoV-2 3CLpro was determined as 6.72. Also, in the data set with SARS-CoV 3CLpro [2], the negative logarithm of the IC50 (pIC50) was 6.569 and the 50% inhibitory concentration (IC50) was 0.27 µM. In the data set on SARS-CoV 3CLpro [3], the “Inact.(<6)/Act.(>=6)” value is on record as “Act. (Act.(>=6))”.
As for `Clc1ccc(C2C(n3ccnc3)C(c3ccc(Br)cc3)=NN2c2ccc(Cl)c(Cl)c2)cc1` (centres unmarked) [CMP112], the “SI*pIC50” value on SARS-CoV-2 3CLpro was found to be 5.754. Moreover, in the data set with SARS-CoV 3CLpro [2], the pIC50 is reported as 5.602 and the IC50 was 2.5 µM. Also, in the data set on SARS-CoV 3CLpro [3], the “Inact.(<6)/Act.(>=6)” value is listed as “Inact. (Inact.(<6))”.
Take `O=C(Oc1cncc(Cl)c1)c1ccco1` [CMP158]: at SARS-CoV-2 3CLpro, the “SI*pIC50” value was 7.374. Also, in the data set with SARS-CoV 3CLpro [2], the pIC50 is 7.222 and the half-inhibitory concentration (IC50) is 0.06 µM. In the data set on SARS-CoV 3CLpro [3], the “Inact.(<6)/Act.(>=6)” value is reported as “Act. (Act.(>=6))”.
`CN1C(=O)C(=O)c2cc(S(=O)(=O)N3CCOCC3)ccc21` [CMP149]: the “SI*pIC50” value at SARS-CoV-2 3CLpro is 5.156. Further, in the data set on SARS-CoV 3CLpro [2], the negative logarithm of the IC50 (pIC50) is on record as 5.004 and the half-inhibitory concentration (IC50) is 9.91 µM. The “Inact.(<6)/Act.(>=6)” value with SARS-CoV 3CLpro [3] is given as “Inact. (Inact.(<6))”.
In the case of `O=c1cc(-c2ccc(O)c(-c3c(O)cc(O)c4c(=O)cc(-c5ccc(O)cc5)oc34)c2)oc2cc(O)cc(O)c12` [CMP154], the “SI*pIC50” value on SARS-CoV-2 3CLpro is 5.233. Besides, in the data set on SARS-CoV 3CLpro [2], the negative-log IC50 (pIC50) was 5.081 and the concentration for half-maximal inhibition (IC50) was 8.3 µM. For the same compound, the “Inact.(<6)/Act.(>=6)” value with SARS-CoV 3CLpro [3] is listed as “Inact. (Inact.(<6))”.
As to `O=C(/C=C/c1ccccc1)Nc1ccccc1SC(=O)/C=C/c1ccccc1` [CMP108], the “SI*pIC50” value on SARS-CoV-2 3CLpro amounted to 6.127. Also, in the data set with SARS-CoV 3CLpro [2], the pIC50 is given as 5.975 and the IC50 is 1.06 µM. Moreover, the “Inact.(<6)/Act.(>=6)” value with SARS-CoV 3CLpro [3] was “Inact. (Inact.(<6))”.
Consider `CC(C)C[C@H](NC(=O)[C@@H](NC(=O)[C@H](C)NC(=O)OCc1ccccc1)C(C)C)C(=O)NC(Cc1ccccc1)C(=O)C(F)(F)F` (some centres unmarked) [CMP174] (Cbz-AVL[ξF]-CF3), for which the “SI*pIC50” value at SARS-CoV-2 3CLpro was 5.152. For the same compound, in the data set with SARS-CoV 3CLpro [2], the pIC50 was 5 and the IC50 was 10 µM. The “Inact.(<6)/Act.(>=6)” value in the data set on SARS-CoV 3CLpro [3] was “Inact. (Inact.(<6))”.
Regarding `O=C1C(=O)N(Cc2ccc(C(=O)N3CCCCC3)s2)c2ccc(I)cc21` [CMP100], the “SI*pIC50” value on SARS-CoV-2 3CLpro is on record as 4.909. In the data set with SARS-CoV 3CLpro [2], the pIC50 is recorded as 4.757 and the IC50 is 17.5 µM. In addition, in the data set on SARS-CoV 3CLpro [3], the “Inact.(<6)/Act.(>=6)” value was “Inact. (Inact.(<6))”.
In the case of `COC(=O)[C@]1(C)CCC[C@]2(C)c3ccc(C(C)C)cc3CC[C@@H]12` [CMP125], on SARS-CoV-2 3CLpro, the “SI*pIC50” value was found to be 3.836. In the data set on SARS-CoV 3CLpro [2], the negative logarithm of the IC50 (pIC50) is on record as 3.684 and the IC50 was 207 µM. The “Inact.(<6)/Act.(>=6)” value in the data set on SARS-CoV 3CLpro [3] is “Inact. (Inact.(<6))”.
